Data from publication PMC11844454 (bioRxiv, 2025).

What was measured:
PP6 holoenzyme = PP6 holoenzyme (Homo sapiens, UniProt O00743); conditions: 100 uM DiFMUP; pH 7.4, 30 C; Mg2+ from enzyme buffer
PP4 holoenzyme = PP4 holoenzyme (Homo sapiens, UniProt P60510); conditions: 100 uM DiFMUP; pH 7.4, 30 C; Mg2+ from enzyme buffer
PP4 holoenzyme, sequence (P60510 2-307): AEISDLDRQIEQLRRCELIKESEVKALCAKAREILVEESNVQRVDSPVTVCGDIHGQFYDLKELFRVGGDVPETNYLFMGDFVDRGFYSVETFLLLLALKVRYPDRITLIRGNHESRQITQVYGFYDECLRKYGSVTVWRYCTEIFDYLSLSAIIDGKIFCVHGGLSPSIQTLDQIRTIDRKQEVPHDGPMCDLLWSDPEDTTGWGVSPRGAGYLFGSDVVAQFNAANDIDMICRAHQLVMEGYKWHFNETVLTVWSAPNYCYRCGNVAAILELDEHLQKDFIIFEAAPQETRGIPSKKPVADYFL
PP4 holoenzyme, sequence (Q9NY27 whole entry partner): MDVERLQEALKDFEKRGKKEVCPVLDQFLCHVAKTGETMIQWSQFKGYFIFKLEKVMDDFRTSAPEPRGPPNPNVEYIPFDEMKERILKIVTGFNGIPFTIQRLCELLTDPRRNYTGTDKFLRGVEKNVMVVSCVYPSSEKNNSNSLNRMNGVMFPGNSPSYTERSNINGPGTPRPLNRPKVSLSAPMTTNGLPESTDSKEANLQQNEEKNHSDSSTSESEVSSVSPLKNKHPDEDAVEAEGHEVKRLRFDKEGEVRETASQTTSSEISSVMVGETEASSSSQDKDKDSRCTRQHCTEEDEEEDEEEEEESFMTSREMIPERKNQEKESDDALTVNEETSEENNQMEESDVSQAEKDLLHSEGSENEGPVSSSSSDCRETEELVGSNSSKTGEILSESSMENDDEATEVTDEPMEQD
PP4 holoenzyme, sequence (Q6IN85 whole entry partner): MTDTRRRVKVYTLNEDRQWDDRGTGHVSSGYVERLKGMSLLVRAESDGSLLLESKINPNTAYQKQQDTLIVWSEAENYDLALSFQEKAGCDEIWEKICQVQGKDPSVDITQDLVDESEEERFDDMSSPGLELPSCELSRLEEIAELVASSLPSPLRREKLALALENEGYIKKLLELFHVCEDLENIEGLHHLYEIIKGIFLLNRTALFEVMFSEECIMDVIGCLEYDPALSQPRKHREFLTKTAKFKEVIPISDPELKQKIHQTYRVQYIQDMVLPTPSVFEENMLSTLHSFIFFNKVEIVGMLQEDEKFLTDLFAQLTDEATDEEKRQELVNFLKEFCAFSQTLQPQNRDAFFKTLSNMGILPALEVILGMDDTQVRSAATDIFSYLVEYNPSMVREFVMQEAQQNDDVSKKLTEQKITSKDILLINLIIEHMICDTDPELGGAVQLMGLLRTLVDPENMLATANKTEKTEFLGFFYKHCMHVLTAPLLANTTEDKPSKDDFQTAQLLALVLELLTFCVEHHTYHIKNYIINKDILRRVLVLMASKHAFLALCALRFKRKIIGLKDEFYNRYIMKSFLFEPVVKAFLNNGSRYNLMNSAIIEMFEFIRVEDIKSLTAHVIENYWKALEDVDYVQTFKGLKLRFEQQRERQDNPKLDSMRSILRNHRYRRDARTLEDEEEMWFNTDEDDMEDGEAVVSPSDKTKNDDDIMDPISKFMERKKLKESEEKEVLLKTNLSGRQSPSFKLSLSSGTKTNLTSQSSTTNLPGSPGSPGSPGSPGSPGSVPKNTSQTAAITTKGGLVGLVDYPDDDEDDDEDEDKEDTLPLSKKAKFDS

PP6 holoenzyme, sequence (O00743 whole entry): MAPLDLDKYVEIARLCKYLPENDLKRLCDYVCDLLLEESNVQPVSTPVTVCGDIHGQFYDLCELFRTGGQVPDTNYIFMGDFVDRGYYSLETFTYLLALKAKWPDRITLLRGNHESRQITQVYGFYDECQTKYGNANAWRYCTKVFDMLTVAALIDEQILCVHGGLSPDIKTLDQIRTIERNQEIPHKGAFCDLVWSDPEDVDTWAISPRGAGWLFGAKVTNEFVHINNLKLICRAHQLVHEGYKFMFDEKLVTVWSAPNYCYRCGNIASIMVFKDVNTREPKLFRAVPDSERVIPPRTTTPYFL
PP6 holoenzyme, sequence (Q9UPN7 whole entry partner): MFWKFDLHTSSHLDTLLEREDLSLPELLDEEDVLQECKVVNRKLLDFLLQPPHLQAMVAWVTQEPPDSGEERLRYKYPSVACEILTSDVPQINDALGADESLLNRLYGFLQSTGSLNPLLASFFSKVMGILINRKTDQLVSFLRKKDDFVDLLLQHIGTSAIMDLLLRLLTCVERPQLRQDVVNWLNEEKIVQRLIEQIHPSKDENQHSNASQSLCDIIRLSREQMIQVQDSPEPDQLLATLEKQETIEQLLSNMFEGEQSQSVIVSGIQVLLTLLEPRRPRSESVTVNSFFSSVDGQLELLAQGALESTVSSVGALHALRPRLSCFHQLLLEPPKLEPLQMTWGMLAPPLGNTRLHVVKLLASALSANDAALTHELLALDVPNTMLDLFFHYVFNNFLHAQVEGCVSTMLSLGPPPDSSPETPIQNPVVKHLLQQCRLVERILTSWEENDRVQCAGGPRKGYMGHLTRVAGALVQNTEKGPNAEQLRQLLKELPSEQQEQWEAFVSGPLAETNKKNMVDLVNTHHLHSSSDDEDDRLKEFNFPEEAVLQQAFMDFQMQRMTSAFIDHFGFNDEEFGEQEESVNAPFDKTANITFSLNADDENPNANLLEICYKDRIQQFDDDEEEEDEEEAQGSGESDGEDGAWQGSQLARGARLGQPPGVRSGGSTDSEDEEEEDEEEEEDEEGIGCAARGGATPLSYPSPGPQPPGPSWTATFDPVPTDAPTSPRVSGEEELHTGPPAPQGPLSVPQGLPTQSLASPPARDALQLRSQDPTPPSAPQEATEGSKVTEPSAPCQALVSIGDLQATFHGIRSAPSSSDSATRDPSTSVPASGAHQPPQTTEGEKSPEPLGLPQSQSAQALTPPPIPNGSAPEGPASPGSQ
PP6 holoenzyme, sequence (O15084 whole entry partner): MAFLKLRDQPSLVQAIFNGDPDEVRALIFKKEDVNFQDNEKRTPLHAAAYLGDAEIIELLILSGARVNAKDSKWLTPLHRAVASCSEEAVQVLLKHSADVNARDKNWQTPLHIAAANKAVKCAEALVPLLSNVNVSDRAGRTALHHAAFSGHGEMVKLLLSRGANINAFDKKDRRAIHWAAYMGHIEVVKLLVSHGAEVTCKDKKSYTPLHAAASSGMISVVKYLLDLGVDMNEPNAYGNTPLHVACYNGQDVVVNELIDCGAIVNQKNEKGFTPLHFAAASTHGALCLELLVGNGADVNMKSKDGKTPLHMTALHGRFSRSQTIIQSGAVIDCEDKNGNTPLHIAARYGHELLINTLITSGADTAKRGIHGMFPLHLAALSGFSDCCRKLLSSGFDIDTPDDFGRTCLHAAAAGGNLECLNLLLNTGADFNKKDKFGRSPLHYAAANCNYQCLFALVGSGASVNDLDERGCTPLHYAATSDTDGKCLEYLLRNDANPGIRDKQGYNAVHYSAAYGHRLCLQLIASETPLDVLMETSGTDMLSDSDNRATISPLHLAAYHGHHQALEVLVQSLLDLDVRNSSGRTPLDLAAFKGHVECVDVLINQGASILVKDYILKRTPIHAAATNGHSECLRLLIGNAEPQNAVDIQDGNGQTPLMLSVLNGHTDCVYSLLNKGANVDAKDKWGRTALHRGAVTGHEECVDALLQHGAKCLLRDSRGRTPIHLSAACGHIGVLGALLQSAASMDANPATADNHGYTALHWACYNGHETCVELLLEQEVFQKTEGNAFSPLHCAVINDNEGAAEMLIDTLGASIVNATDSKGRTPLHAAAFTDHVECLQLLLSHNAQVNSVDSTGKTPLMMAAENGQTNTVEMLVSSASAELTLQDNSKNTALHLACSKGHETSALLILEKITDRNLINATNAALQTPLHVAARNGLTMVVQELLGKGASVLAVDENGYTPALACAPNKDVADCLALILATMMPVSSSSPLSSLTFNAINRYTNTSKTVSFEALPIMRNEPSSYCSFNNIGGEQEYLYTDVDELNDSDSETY

Cc1cc(=O)oc2c(F)c(OP(=O)(O)O)c(F)cc12 [DiFMUP]
fluorescence dephosphorylation assay (PP6 holoenzyme): DiFMUP dephosphorylation assay measuring the activity of purified PP6 holoenzyme | fluorescence dephosphorylation assay (PP4 holoenzyme): mixing purified PP4 and PP6 holoenzymes
